Measured values published in PubChem BioAssay (NCI).
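Five concentrations, 48 hours, 96-well plates. GI50 marks 50% less growth. At the TGI there is no net growth.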

Key:
Assay in all cases: growth of human tumour cells (NCI), 48 h
T-47D breast = system: T-47D breast
UACC-62 melanoma = system: UACC-62 melanoma
SW-620 colon = system: SW-620 colon
MDA-MB-231 breast = system: MDA-MB-231 breast
MOLT-4 leukemia = system: MOLT-4 leukemia
SF-539 CNS = system: SF-539 CNS
HOP-62 NSCLC = system: HOP-62 NSCLC
DU-145 prostate = system: DU-145 prostate
IGROV1 ovarian = system: IGROV1 ovarian
HL-60(TB) leukemia = system: HL-60(TB) leukemia

SMILES	GI50 (T-47D breast)	TGI (T-47D breast)	GI50 (UACC-62 melanoma)	TGI (UACC-62 melanoma)	GI50 (SW-620 colon)	TGI (SW-620 colon)	GI50 (MDA-MB-231 breast)	TGI (MDA-MB-231 breast)	GI50 (MOLT-4 leukemia)	TGI (MOLT-4 leukemia)	GI50 (SF-539 CNS)	TGI (SF-539 CNS)	GI50 (HOP-62 NSCLC)	TGI (HOP-62 NSCLC)	GI50 (DU-145 prostate)	TGI (DU-145 prostate)	GI50 (IGROV1 ovarian)	TGI (IGROV1 ovarian)	GI50 (HL-60(TB) leukemia)	TGI (HL-60(TB) leukemia)
C[C@H](NC(=O)[C@@H](C)N)[C@H](Oc1ccc2c(cnn2-c2ccc(F)cc2)c1)c1ccc2c(c1)OCCO2	2.19 µM	5.41 µM	1.87 µM	3.39 µM	1.71 µM	3.36 µM	1.93 µM	4.69 µM	1.44 µM	4.25 µM	1.65 µM	3.54 µM	4.34 µM	20.1 µM	2.02 µM	5.01 µM	1.84 µM	5.07 µM	2.28 µM	4.94 µM
COc1cc(/C=C\c2cc(OC)c(OC)c(OC)c2)cc(NC(=O)/C=C/c2cc(OC)c(OC)c(OC)c2)c1OC	3.11 µM	> 100 µM	2.19 µM	> 100 µM	5.89 µM	> 100 µM	5.43 µM	> 100 µM	3.15 µM	> 100 µM	7.58 µM	> 100 µM	7.21 µM	> 100 µM	> 100 µM	> 100 µM	6.61 µM	> 100 µM	0.509 µM	4.46 µM
CCN(Cc1ccc(Cl)cc1)c1ccc(CO)c(Cl)c1	0.196 µM	1.25 µM	0.0929 µM	0.719 µM	0.824 µM	16.4 µM	4.95 µM	20.3 µM	13.5 µM	43.4 µM	11.9 µM	26.7 µM	1.24 µM	13.9 µM	7.89 µM	22.7 µM	0.0867 µM	0.641 µM	3.17 µM	20.8 µM
C=C1C(=O)O[C@@H]2C[C@@H](C)[C@@H]3C=CC(=O)[C@@]3(C)[C@@H](O)[C@H]12		12.2 µM		5.46 µM		2.59 µM		7.35 µM		3.36 µM		9.36 µM		17.7 µM		15.5 µM		8.1 µM		2.4 µM
CCOC(=O)N1CCN(/[N+]([O-])=N/Oc2ccc([N+](=O)[O-])cc2[N+](=O)[O-])CC1	8 µM	> 67.1 µM	2.65 µM	12.8 µM	0.434 µM	35.7 µM	1.99 µM	7.08 µM	0.482 µM		0.424 µM	20.9 µM	3.14 µM	13.6 µM	4.73 µM	19.2 µM	9.04 µM	30.2 µM	0.0761 µM	0.201 µM
Oc1c(-c2nnc(-c3ccccc3Cl)o2)sc2nnc(-c3ccccc3)c(-c3ccccc3)c12	4.78 µM	> 100 µM	2.64 µM	9.49 µM	4.07 µM	25.3 µM	4.08 µM	40.1 µM	3.88 µM	> 100 µM	4.45 µM	70.4 µM	4.99 µM	> 100 µM	8.26 µM	> 100 µM	2.47 µM	8.78 µM	4.16 µM	> 100 µM
N=C1C(c2nc3ccccc3s2)=C(O)CN1c1ccc(F)c(Cl)c1	72.5 µM	> 100 µM	16.8 µM	52.7 µM	58.7 µM	> 100 µM	15.9 µM	47.3 µM	19.6 µM	> 100 µM	8.36 µM	30.9 µM	18.1 µM	36.2 µM	36.1 µM	> 100 µM	19.4 µM	58.3 µM	> 100 µM	> 100 µM
COC12C=C/C(=C(/C(=O)OCc3cncnc3)C(=O)CCCCCCCCC3(OC)C=C/C(=C(/C(=O)OCc4cncnc4)C(=O)CCCCCCCC1)O3)O2	0.232 µM	> 50 µM	0.533 µM	1.21 µM	0.19 µM	1.19 µM	0.597 µM	> 50 µM			0.952 µM	2.47 µM	0.624 µM	2.97 µM	0.5 µM	2.55 µM	0.589 µM	1.96 µM	0.387 µM	2.82 µM
C=C(CN1C(=O)CN(C)C1=O)c1ccc(C(=O)Nc2ccccc2N)cc1	2.55 µM	22.2 µM	9.31 µM	32.3 µM	19.4 µM	> 100 µM	36.3 µM	> 100 µM	7.29 µM	63.3 µM	36.2 µM	> 100 µM	17.6 µM	> 100 µM	25.9 µM	> 100 µM	12.3 µM	> 100 µM	4.93 µM	61.1 µM
COc1cc(C(O)CCBr)c(OC)cc1C (configuration not stated)		> 100 µM		50.8 µM		> 100 µM		> 72.7 µM		> 100 µM		31.3 µM		> 93.5 µM		> 100 µM		> 100 µM		> 100 µM
CCOC(=O)c1c(C)nc2c(c1N)CC(=O)N2Cc1ccc(OC)cc1	25.9 µM	> 100 µM	34.1 µM	> 100 µM	> 100 µM	> 100 µM	3.77 µM	> 100 µM	81.3 µM	> 100 µM	7.03 µM	> 100 µM	2.1 µM	5.97 µM	> 100 µM	> 100 µM	80.3 µM	> 100 µM	> 100 µM	> 100 µM
C/C=C(\C)C(=O)NC1=CC[C@@]2(C)C(=CCC3C2CC[C@@]2(C)C3CC[C@@H]2C(C)N(C)C)C1=O (some centres not stated)	1.94 µM	25.7 µM	1.82 µM	3.85 µM	2.02 µM	4.91 µM	3.14 µM	9.99 µM	0.843 µM	6.43 µM	1.62 µM	3.22 µM	2.08 µM	5.51 µM	7.06 µM	> 59.5 µM	5.17 µM	21 µM	1.42 µM	5.2 µM
C[C@@]1(C(=O)O)CCC[C@]2(C)C1CC[C@@]13CC(=O)[C@@](CO)(CC[C@]12O)C3 (some centres not stated)	22.2 µM	> 100 µM	> 100 µM	> 100 µM	> 100 µM	> 100 µM	> 100 µM	> 100 µM	> 100 µM	> 100 µM	> 100 µM	> 100 µM	> 100 µM	> 100 µM	> 100 µM	> 100 µM	> 100 µM	> 100 µM	> 100 µM	> 100 µM
